Experiment [1] deals with ID188 patient-derived PDAC 2D line (pre-FOLFIRINOX). The experiment in a line: normalised area under dose-response curve (viability relative to DMSO, 7 doses up to 10 µM) (fraction (AUC)); higher = less sensitive (more viability retained). The settings on record: 72 h; top dose: 10 µM. The procedure, abridged: (§1)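 SelleckChem library compounds were tested for 72 h at seven concentrations (3-fold steps, highest 10 µM) on patient-derived 2D PDAC cells grown out from organoids. These cells had been robotically placed at 1,500–3,000 cells/well in 96-well plates and incubated overnight at 37°C with 5% CO2, and luminescence from CellTiter-Glo was recorded after 10 min. The GRmetrics R package gave the area under the dose-response curve from viability normalised to control wells.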

Experiment [2] relates to ID211 patient-derived PDAC 2D line (post-FOLFIRINOX). The description is as above. Conditions: 72 h; top dose: 10 µM. The procedure, abridged: as §1

Consider `Cn1cc(-c2ccc3c(c2)CCN3C(=O)Cc2cccc(C(F)(F)F)c2)c2c(N)ncnc21`, for which the “normalised area under dose-response curve” value (“normalised area” below) was 0.915 in experiment [1] and 0.852 in experiment [2].

As for `Cc1ccc(C(=O)Nc2ccc(CN3CCN(C)CC3)c(C(F)(F)F)c2)cc1C#Cc1cnc2cccnn12`, the “normalised area” value in experiment [1] was found to be 0.782; in experiment [2] it was 0.696.

With `CC1=C(/C=C/C(C)=C/C=C/C(C)=C/C(=O)O)C(C)(C)CCC1` [Tretinoin], the entries for the “normalised area” value in experiment [1] and in experiment [2] were 1.12 and 0.841, respectively.

For the compound `O=C(NC[C@H](O)CN1CCc2ccccc2C1)c1ccnc(NC2CCC2)c1` [GSK591], the “normalised area” value in experiment [1] worked out at 0.843; in experiment [2] it was 0.881.

For the compound `C[C@@H](Oc1cc(-c2cnn(C3CCNCC3)c2)cnc1N)c1c(Cl)ccc(F)c1Cl`, the “normalised area” value in experiment [1] turned out to be 0.772; in experiment [2] it was 0.799.

As for `CN1c2ccccc2C(=O)Nc2cnc(Nc3ccc(N4CCC(O)CC4)cc3)nc21` [XMD16-5], the “normalised area” value in experiment [1] is 0.906; in experiment [2], 0.783.

In the case of `C=CC(=O)Nc1cc(Nc2nccc(-c3cn(C)c4ccccc34)n2)c(OC)cc1N(C)CCN(C)C` [Osimertinib (AZD9291)], the “normalised area” value in experiment [1] was found to be 0.855; in experiment [2] it was 0.749.

For `Clc1ccc(C(c2c[nH]c3ccccc23)c2c[nH]c3ccccc23)cc1` [C-DIM12], the “normalised area” value in experiment [1] turned out to be 0.92; in experiment [2] it was 0.897.

As to `CNS(=O)(=O)Nc1nccc(Cc2c(C)c3ccc(Oc4ncccn4)cc3oc2=O)c1F`, the “normalised area” value in experiment [1] worked out at 0.679; in experiment [2], 0.409.

Turning to `COc1ccc(N(C(=O)Oc2c(C)cccc2C)c2ccnc(Nc3ccc(N4CCN(C)CC4)cc3)n2)c(OC)c1` [WH-4-023], the “normalised area” value is 0.929 in experiment [1] and 0.935 in experiment [2].

As for `C[C@@H]1CCN(C(=O)CC#N)C[C@@H]1N(C)c1ncnc2[nH]ccc12`, the “normalised area” value came out at 0.759 in experiment [1] and 0.881 in experiment [2].

Take `Cc1cc2c(F)c(Oc3ncnn4cc(OC[C@@H](C)O)c(C)c34)ccc2[nH]1`: the “normalised area” value in experiment [1] is 0.918; in experiment [2], 0.813.

Regarding `O=C(NCc1cccc(O)c1)Nc1nc(-c2ccncc2)cs1` [RKI-1447], the “normalised area” value in experiment [1] came to 1.04; in experiment [2], 0.962.

On to `O=S(=O)(N=Cc1c(O)ccc2ccccc12)c1cccs1`, for which the “normalised area” value in experiment [1] was 0.913; in experiment [2] it was 0.941.

Regarding `NC(=O)C1CCCc2c1[nH]c1ccc(Cl)cc21` (stereo unspecified) [Selisistat (EX 527)], the “normalised area” value in experiment [1] turned out to be 0.971; in experiment [2] it was 0.997.

As to `CC(C)C[C@H](NC(=O)[C@H](CCc1ccccc1)NC(=O)CN1CCOCC1)C(=O)N[C@@H](Cc1ccccc1)C(=O)N[C@@H](CC(C)C)C(=O)[C@@]1(C)CO1` [Carfilzomib (PR-171)], the “normalised area” value was 0.126 in experiment [1] and 0.0368 in experiment [2].

As for `COc1ccc(-c2ccc3c(N4CCOCC4)nc(N4C[C@@H](C)O[C@@H](C)C4)nc3n2)cc1CO`, the “normalised area” value in experiment [1] was 0.825; in experiment [2], 0.831.

On to `COc1cc(OC)c2c(=O)[nH]c(-c3cc(C)c(OCCO)c(C)c3)nc2c1` [Apabetalone (RVX-208)], for which the “normalised area” value in experiment [1] turned out to be 0.949; in experiment [2] it was 0.837.

Turning to `O=C(O)C(=O)CBr` [Bromopyruvic acid], the “normalised area” value is 0.992 in experiment [1] and 0.834 in experiment [2].

In the case of `NS(=O)(=O)c1ccc(NC(=O)Nc2ccc(F)cc2)cc1` [U-104], the “normalised area” value amounted to 0.94 in experiment [1] and 0.976 in experiment [2].

With `CC(=O)N1c2ccc(-c3ccc(C(=O)O)cc3)cc2[C@H](Nc2ccc(Cl)cc2)C[C@@H]1C`, the “normalised area” value is 0.815 in experiment [1] and 0.732 in experiment [2].

Turning to `COc1cc(OC)c(/C=C/S(=O)(=O)Cc2ccc(OC)c(NCC(=O)O)c2)c(OC)c1`, the entries for the “normalised area” value in experiment [1] and in experiment [2] were 0.746 and 0.557, respectively.

Take `O=C(Cc1ccccc1)Nc1nnc(CCSCCc2nnc(NC(=O)Cc3ccccc3)s2)s1` [BPTES]: the “normalised area” value in experiment [1] is 0.861; in experiment [2] it was 0.854.

As to `Cc1ccc(NCCCc2ccccc2)c(N)c1` [JSH-23], the “normalised area” value amounted to 0.97 in experiment [1] and 0.79 in experiment [2].

For the compound `N#CSc1cc(SC#N)c(N)nc1N` [PR-619], the “normalised area” value in experiment [1] was found to be 0.921; in experiment [2], 0.875.

For `CCCN(CCC)C(=O)C1=Cc2ccc(-c3ccc(C(=O)N4CCCC4)cc3)cc2N=C(N)C1` [Motolimod (VTX-2337)], the “normalised area” value stood at 0.969 in experiment [1] and 0.822 in experiment [2].

Turning to `CO[C@@H](C(=O)N1Cc2[nH]nc(NC(=O)c3ccc(N4CCN(C)CC4)cc3)c2C1)c1ccccc1`, the “normalised area” value was found to be 0.766 in experiment [1] and 0.611 in experiment [2].

As to `N#CN=C(NCCCCCCOc1ccc(Cl)cc1)Nc1ccncc1` [GMX1778 (CHS828)], the “normalised area” value is 0.283 in experiment [1] and 0.296 in experiment [2].

As to `COc1cc(O)c(CC=C(C)C)c(O)c1C(=O)/C=C/c1ccc(O)cc1` [Xanthohumol], the figures for the “normalised area” value in experiment [1] and in experiment [2] were 0.943 and 0.926, respectively.

For `O=C1Nc2ccccc2/C1=C1/Nc2ccccc2C1=O` [Indirubin], the “normalised area” value came out at 0.791 in experiment [1] and 0.801 in experiment [2].

`CC(=O)Nc1nc(C)c(-c2ccc(Cl)c(S(=O)(=O)NCCO)c2)s1` [PIK-93]: the “normalised area” value amounted to 0.927 in experiment [1] and 0.807 in experiment [2].

As to `CNC(=O)c1ccc(-c2cnc3ncc(Cc4ccc5ncccc5c4)n3n2)cc1F`, the “normalised area” value came out at 0.956 in experiment [1] and 0.855 in experiment [2].

For `CNC(=O)c1ccccc1Sc1ccc2c(/C=C/c3ccccn3)n[nH]c2c1` [Axitinib], the figures for the “normalised area” value in experiment [1] and in experiment [2] were 0.898 and 0.857, respectively.

On to `CC[C@H](NC(=O)[C@H](C)NC)C(=O)N1C[C@@H](O)C[C@H]1Cc1c(-c2[nH]c3cc(F)ccc3c2C[C@@H]2C[C@H](O)CN2C(=O)[C@H](CC)NC(=O)[C@H](C)NC)[nH]c2cc(F)ccc12` [Birinapant], for which the “normalised area” value in experiment [1] came out at 0.315; in experiment [2], 1.02.

Consider `Cn1ncc(Cl)c1-c1cc(C(=O)N[C@H](CN)Cc2ccc(F)c(F)c2)oc1Cl`, for which the “normalised area” value in experiment [1] stood at 0.805; in experiment [2] it was 0.789.

Turning to `CN1CCN(c2ccc(C(=O)Nc3n[nH]c4ccc(Cc5cc(F)cc(F)c5)cc34)c(NC3CCOCC3)c2)CC1` [Entrectinib (RXDX-101)], the “normalised area” value in experiment [1] came out at 0.813; in experiment [2], 0.706.

As for `CN1CCN(c2ccc3nc(-c4c(N)c5c(F)cccc5[nH]c4=O)[nH]c3c2)CC1` [Dovitinib (TKI258) Lactate], the “normalised area” value in experiment [1] was determined as 1.01; in experiment [2], 0.904.

`CCn1c(=O)c(-c2cc[nH]n2)cc2c(C)nc(N)nc21`: the results for the “normalised area” value in experiment [1] and in experiment [2] were 0.814 and 0.792, respectively.

For the compound `CC(C)CCN1c2nc(Nc3cc(F)c(O)c(F)c3)ncc2N(C)C(=O)C1C` (stereo unspecified) [BI-D1870], the “normalised area” value was determined as 0.925 in experiment [1] and 0.876 in experiment [2].

For `C[C@]1(O)C[C@@H](c2nc(-c3ccc4ccc(-c5ccccc5)nc4c3)c3c(N)nccn32)C1` [Linsitinib (OSI-906)], the entries for the “normalised area” value in experiment [1] and in experiment [2] were 0.84 and 0.593, respectively.

In the case of `COc1ccc(-n2c(SCCCN3C(=O)c4cccc5cccc(c45)C3=O)nnc2-c2ccncc2)cc1` [WIKI4], the “normalised area” value was 0.837 in experiment [1] and 0.85 in experiment [2].

As to `Cc1nn(C)c(COc2ccc(N3CCN(S(=O)(=O)N(C)C)CC3)cc2)c1-c1cccc2c(CCCOc3cccc4ccccc34)c(C(=O)O)n(CCN3CCOCC3)c12`, the figures for the “normalised area” value in experiment [1] and in experiment [2] were 0.98 and 0.938, respectively.

As for `Nc1ncn([C@H]2C[C@H](O)[C@@H](CO)O2)c(=O)n1` [Decitabine], the “normalised area” value came to 0.909 in experiment [1] and 0.82 in experiment [2].

Regarding `Cc1c[nH]c2nc(Nc3ccc(N4CCN(C)CC4)c(F)c3)nc(-c3cccc(CC#N)c3)c12` [SGI-7079], the “normalised area” value in experiment [1] is 0.803; in experiment [2], 0.638.

As to `Cn1cc(/C=C2\C(=O)Nc3cccnc32)c2ccccc21`, the entries for the “normalised area” value in experiment [1] and in experiment [2] were 0.94 and 0.914, respectively.

Take `COc1cc2c(cc1OC)CN(CCc1ccc(NC(=O)c3cccc4c(=O)c5cccc(OC)c5[nH]c34)cc1)CC2`: the “normalised area” value in experiment [1] is 1.02; in experiment [2], 0.682.

For `CC(C)(C#N)c1cc(Cn2cncn2)cc(C(C)(C)C#N)c1` [Anastrozole], the “normalised area” value was found to be 0.939 in experiment [1] and 0.799 in experiment [2].

Regarding `O=c1[nH]cnc2[nH]ncc12` [Allopurinol Sodium], the “normalised area” value in experiment [1] was 0.951; in experiment [2] it was 0.843.

Values taken from the supplement of paper PMC8988213.
